Active and inactive are the calls of the source. No cut-off for these calls is given here.
How the values were obtained:
[1] = molecular target: T1, Epidermal growth factor receptor (Homo sapiens, UniProt P00533); assay: Inhibition of EGFR in human A431 cells assessed as inhibition of EGF-induced AKT phosphorylation at 0.1 to 1 umol/L pretreated for 2 hrs followed by EGF challenge by Western blotting analysis; type: cell-based; conditions: A-431
[2] = molecular target: T1, Epidermal growth factor receptor; assay: Inhibition of wild type EGFR domain (unknown origin) expressed in baculovirus expression system using Poly(Glu:Tyr)4:1 substrate after 60 mins by ELISA
[3] = tested on: Epidermal growth factor receptor (Homo sapiens), P00533 [L858R,T790M]; assay: Inhibition of EGF-induced EGFR T790M/L858R double mutant phosphorylation in human NCI-H1975 cells pretreated for 2 hrs followed by EGF challenge by Western blotting analysis; type: cell-based
Epidermal growth factor receptor (Homo sapiens), P00533 [L858R,T790M], sequence (P00533 whole entry T790M/L858R, looked up): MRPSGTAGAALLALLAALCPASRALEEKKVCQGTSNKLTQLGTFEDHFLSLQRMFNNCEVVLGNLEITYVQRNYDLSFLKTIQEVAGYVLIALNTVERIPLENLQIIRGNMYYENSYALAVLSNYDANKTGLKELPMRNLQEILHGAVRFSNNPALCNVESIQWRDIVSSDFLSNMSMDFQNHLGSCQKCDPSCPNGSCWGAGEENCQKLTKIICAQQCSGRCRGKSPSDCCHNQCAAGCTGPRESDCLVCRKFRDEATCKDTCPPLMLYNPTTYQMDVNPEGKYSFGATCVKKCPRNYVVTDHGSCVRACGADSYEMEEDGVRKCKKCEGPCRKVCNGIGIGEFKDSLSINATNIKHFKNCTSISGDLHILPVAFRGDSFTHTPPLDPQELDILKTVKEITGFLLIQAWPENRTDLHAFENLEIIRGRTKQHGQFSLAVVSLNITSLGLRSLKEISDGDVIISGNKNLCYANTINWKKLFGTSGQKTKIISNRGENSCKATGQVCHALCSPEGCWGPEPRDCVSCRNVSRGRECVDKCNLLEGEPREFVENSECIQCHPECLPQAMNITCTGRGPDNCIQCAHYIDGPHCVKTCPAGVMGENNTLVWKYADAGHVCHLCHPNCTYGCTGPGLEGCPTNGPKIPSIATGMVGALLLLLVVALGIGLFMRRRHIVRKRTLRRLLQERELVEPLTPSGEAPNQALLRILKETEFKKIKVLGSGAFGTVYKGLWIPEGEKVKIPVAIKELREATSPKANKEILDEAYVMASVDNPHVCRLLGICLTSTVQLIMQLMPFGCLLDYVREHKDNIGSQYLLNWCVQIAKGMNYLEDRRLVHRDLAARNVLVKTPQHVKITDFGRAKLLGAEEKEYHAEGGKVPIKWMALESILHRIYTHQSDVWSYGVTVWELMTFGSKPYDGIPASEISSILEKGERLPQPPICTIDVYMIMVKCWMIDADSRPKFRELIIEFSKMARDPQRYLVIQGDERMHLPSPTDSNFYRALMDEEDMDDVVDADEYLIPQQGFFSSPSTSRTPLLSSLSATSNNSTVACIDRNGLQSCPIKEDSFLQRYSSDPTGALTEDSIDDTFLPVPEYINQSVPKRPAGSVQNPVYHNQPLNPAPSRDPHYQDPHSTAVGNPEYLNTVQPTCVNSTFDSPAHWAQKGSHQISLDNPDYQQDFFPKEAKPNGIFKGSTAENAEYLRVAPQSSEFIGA

[4] = tested on: Epidermal growth factor receptor (Homo sapiens), P00533 [L858R,T790M]; assay: Inhibition of EGFR T790M/L858R double mutant in human NCI-H1975 cells assessed as inhibition of EGF-induced AKT phosphorylation pretreated for 2 hrs followed by EGF challenge by Western blotting analysis; type: cell-based
[5] = tested on: NCI-H1975; assay: Antiproliferative activity against gefitinib-resistant human NCI-H1975 cells assessed as growth inhibition after 72 hrs by SRB assay; type: functional, cell-based; conditions: NCI-H1975, 72 h
[6] = molecular target: T1, Epidermal growth factor receptor; assay: Inhibition of EGF-induced EGFR autophosphorylation in human A431 cells pretreated for 2 hrs followed by EGF challenge by Western blotting analysis; type: cell-based; conditions: A-431
[7] = molecular target: T1, Epidermal growth factor receptor; assay: Inhibition of EGF-induced EGFR autophosphorylation in human A431 cells at 0.1 umol/L pretreated for 2 hrs followed by EGF challenge by Western blotting analysis; type: cell-based; conditions: A-431
[8] = tested on: A-431; assay: Antiproliferative activity against human A431 cells assessed as growth inhibition after 72 hrs by SRB assay; type: functional, cell-based; conditions: A-431, 72 h
[9] = molecular target: Epidermal growth factor receptor (Homo sapiens, UniProt P00533, L858R/T790M); assay: Inhibition of EGFR T790M/L858R double mutant (unknown origin) expressed in baculovirus expression system using Poly(Glu:Tyr)4:1 substrate after 60 mins by ELISA
Epidermal growth factor receptor (Homo sapiens, UniProt P00533, L858R/T790M), sequence (P00533 25-1210 T790M/L858R limits assumed): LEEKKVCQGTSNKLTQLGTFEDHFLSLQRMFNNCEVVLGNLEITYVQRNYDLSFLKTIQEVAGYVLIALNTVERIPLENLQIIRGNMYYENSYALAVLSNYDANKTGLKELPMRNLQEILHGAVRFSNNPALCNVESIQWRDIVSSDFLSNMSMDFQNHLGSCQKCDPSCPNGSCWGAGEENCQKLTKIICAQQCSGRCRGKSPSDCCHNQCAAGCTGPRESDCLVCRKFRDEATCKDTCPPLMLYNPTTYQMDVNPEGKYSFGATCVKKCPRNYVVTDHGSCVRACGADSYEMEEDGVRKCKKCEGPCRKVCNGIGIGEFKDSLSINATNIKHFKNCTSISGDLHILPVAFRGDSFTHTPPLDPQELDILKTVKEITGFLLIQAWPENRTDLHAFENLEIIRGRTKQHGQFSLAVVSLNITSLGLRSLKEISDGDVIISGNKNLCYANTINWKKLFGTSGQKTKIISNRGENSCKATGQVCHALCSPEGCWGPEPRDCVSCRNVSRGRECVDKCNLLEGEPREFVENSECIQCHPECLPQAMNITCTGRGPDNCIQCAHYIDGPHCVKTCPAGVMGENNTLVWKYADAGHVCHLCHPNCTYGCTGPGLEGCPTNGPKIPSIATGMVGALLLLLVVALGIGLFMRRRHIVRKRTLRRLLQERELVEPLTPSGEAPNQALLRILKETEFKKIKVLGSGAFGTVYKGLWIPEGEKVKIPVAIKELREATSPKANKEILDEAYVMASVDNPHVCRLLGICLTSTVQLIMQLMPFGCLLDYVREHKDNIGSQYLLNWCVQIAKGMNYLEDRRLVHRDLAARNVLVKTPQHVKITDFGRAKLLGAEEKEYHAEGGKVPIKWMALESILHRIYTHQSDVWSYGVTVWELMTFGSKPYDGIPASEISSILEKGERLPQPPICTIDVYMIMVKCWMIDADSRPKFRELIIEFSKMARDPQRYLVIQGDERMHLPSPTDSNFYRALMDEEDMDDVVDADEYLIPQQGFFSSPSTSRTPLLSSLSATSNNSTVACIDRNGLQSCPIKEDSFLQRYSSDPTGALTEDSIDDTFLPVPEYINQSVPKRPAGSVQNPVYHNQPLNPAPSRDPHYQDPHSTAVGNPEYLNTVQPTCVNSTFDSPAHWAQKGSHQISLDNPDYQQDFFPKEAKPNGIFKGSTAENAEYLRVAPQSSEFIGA

[10] = tested on: Epidermal growth factor receptor (Homo sapiens), P00533 [L858R,T790M]; assay: Inhibition of EGFR T790M/L858R double mutant in human NCI-H1975 cells assessed as inhibition of EGF-induced ERK1/2 phosphorylation pretreated for 2 hrs followed by EGF challenge by Western blotting analysis; type: cell-based
[11] = molecular target: T1, Epidermal growth factor receptor; assay: Inhibition of EGFR in human A431 cells assessed as inhibition of EGF-induced ERK1/2 phosphorylation at 0.1 to 1 umol/L pretreated for 2 hrs followed by EGF challenge by Western blotting analysis; type: cell-based; conditions: A-431
[12] = molecular target: Insulin-like growth factor 1 receptor (Homo sapiens, UniProt P08069); assay: Inhibition of IGF1R (unknown origin) expressed in baculovirus expression system using Poly(Glu:Tyr)4:1 after 60 mins by ELISA
[13] = molecular target: Receptor tyrosine-protein kinase erbB-4 (Homo sapiens, UniProt Q15303); assay: Inhibition of recombinant ErbB4 (unknown origin) using Poly(Glu:Tyr)4:1 after 60 mins by ELISA
[14] = molecular target: Fibroblast growth factor receptor 1 (Homo sapiens, UniProt P11362); assay: Inhibition of FGFR1 (unknown origin) expressed in baculovirus expression system using Poly(Glu:Tyr)4:1 after 60 mins by ELISA
[15] = molecular target: Platelet-derived growth factor receptor beta (Homo sapiens, UniProt P09619); assay: Inhibition of recombinant PDGFRbeta (unknown origin) using Poly(Glu:Tyr)4:1 after 60 mins by ELISA
[16] = molecular target: Macrophage-stimulating protein receptor (Homo sapiens, UniProt Q04912); assay: Inhibition of recombinant RON (unknown origin) using Poly(Glu:Tyr)4:1 after 60 mins by ELISA
[17] = molecular target: Receptor tyrosine-protein kinase erbB-2 (Homo sapiens, UniProt P04626); assay: Inhibition of ErbB2 (unknown origin) expressed in baculovirus expression system using Poly(Glu:Tyr)4:1 after 60 mins by ELISA
[18] = molecular target: Mast/stem cell growth factor receptor Kit (Homo sapiens, UniProt P10721); assay: Inhibition of recombinant c-Kit (unknown origin) using Poly(Glu:Tyr)4:1 after 60 mins by ELISA
[19] = molecular target: Vascular endothelial growth factor receptor 1 (Homo sapiens, UniProt P17948); assay: Inhibition of recombinant Flt-1 (unknown origin) using Poly(Glu:Tyr)4:1 after 60 mins by ELISA
Vascular endothelial growth factor receptor 1, sequence (P17948 whole entry): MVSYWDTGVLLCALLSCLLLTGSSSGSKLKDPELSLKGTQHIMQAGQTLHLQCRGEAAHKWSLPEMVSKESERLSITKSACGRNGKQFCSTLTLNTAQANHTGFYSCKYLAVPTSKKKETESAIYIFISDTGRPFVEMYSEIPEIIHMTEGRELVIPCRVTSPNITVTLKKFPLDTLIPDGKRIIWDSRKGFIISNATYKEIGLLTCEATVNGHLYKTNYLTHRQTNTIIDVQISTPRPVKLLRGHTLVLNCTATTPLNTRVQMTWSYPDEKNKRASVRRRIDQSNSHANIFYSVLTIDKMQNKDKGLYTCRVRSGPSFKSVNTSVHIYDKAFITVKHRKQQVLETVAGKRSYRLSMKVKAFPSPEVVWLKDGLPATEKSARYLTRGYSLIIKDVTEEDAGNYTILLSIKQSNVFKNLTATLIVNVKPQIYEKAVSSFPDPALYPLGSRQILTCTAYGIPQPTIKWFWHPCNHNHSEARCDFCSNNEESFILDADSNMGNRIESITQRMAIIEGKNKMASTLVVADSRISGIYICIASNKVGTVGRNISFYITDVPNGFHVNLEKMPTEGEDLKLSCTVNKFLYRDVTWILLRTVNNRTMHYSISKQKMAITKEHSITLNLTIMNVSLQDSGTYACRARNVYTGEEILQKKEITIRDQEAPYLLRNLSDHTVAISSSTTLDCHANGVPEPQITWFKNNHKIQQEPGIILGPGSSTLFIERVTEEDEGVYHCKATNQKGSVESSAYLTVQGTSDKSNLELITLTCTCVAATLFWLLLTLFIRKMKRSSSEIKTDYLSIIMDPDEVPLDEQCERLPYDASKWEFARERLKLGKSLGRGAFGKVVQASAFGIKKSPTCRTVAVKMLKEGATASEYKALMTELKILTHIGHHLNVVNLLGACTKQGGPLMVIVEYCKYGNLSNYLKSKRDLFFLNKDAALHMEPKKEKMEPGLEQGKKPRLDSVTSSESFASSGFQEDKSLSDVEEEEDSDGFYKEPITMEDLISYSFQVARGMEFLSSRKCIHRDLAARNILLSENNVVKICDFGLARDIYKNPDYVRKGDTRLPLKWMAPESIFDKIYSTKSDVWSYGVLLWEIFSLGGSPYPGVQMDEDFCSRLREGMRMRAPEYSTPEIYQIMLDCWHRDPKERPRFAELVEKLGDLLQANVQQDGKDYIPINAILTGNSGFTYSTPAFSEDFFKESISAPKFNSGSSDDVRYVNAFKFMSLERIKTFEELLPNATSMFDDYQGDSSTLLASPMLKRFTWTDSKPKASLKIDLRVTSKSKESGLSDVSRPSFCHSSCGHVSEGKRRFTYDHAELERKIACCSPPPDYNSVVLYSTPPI

[20] = molecular target: Tyrosine-protein kinase ABL1 (Homo sapiens, UniProt P00519); assay: Inhibition of recombinant ABL (unknown origin) using Poly(Glu:Tyr)4:1 after 60 mins by ELISA
[21] = molecular target: Platelet-derived growth factor receptor alpha (Homo sapiens, UniProt P16234); assay: Inhibition of recombinant PDGFRalpha (unknown origin) using Poly(Glu:Tyr)4:1 after 60 mins by ELISA
[22] = molecular target: Ephrin type-A receptor 2 (Homo sapiens, UniProt P29317); assay: Inhibition of recombinant EPHA2 (unknown origin) using Poly(Glu:Tyr)4:1 after 60 mins by ELISA
[23] = molecular target: Proto-oncogene tyrosine-protein kinase receptor Ret (Homo sapiens, UniProt P07949); assay: Inhibition of recombinant RET (unknown origin) using Poly(Glu:Tyr)4:1 after 60 mins by ELISA
[24] = molecular target: Vascular endothelial growth factor receptor 2 (Homo sapiens, UniProt P35968); assay: Inhibition of KDR (unknown origin) expressed in baculovirus expression system using Poly(Glu:Tyr)4:1 after 60 mins by ELISA
[25] = tested on: Epidermal growth factor receptor (Homo sapiens), P00533 [L858R,T790M]; assay: Inhibition of EGF-induced EGFR T790M/L858R double mutant phosphorylation in human NCI-H1975 cells at 0.1 umol/L pretreated for 2 hrs followed by EGF challenge by Western blotting analysis; type: cell-based

T1 sequence (P00533 whole entry, the tested form may be a part): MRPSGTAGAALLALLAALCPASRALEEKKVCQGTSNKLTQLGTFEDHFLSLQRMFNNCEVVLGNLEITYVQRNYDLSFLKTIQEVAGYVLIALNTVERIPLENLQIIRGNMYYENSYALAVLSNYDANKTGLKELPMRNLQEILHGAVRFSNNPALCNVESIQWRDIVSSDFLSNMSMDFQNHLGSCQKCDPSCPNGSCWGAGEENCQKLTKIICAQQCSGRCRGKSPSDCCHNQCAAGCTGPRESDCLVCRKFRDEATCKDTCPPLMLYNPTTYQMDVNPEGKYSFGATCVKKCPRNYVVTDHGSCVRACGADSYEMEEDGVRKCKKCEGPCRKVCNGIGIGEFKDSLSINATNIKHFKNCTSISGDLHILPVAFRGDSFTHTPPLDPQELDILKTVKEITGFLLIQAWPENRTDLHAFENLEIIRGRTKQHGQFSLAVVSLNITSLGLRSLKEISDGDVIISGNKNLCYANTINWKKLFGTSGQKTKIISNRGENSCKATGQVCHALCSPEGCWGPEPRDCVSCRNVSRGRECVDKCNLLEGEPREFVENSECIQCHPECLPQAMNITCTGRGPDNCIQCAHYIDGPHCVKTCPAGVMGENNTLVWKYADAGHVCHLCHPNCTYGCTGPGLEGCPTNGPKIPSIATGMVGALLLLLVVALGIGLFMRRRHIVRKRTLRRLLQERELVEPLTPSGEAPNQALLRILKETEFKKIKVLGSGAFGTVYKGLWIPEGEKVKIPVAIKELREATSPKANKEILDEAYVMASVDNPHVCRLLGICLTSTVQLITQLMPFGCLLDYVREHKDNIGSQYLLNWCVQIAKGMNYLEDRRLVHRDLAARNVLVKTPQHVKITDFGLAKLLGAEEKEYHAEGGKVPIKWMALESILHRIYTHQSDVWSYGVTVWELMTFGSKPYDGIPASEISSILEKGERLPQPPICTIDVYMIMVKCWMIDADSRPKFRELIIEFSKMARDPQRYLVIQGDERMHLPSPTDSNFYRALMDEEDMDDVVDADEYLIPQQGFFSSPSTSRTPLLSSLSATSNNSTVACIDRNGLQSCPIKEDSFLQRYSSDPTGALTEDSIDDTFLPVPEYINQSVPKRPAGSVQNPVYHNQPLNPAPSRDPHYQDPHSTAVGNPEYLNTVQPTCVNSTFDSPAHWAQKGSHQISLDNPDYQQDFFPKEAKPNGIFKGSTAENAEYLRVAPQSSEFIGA

| Compound | inhibition [1] | IC50 [2] [nM] | inhibition [3] | inhibition [4] | IC50 [5] [nM] | inhibition [6] | inhibition [7] | IC50 [8] [nM] | IC50 [9] [nM] | inhibition [10] | inhibition [11] | IC50 [12] [nM] | IC50 [13] [nM] | IC50 [14] [nM] | IC50 [15] [nM] | IC50 [16] [nM] | IC50 [17] [nM] | IC50 [18] [nM] | IC50 [19] [nM] | IC50 [20] [nM] | also measured |
| --- | --- | --- | --- | --- | --- | --- | --- | --- | --- | --- | --- | --- | --- | --- | --- | --- | --- | --- | --- | --- | --- |
| O=C(/C=C/CN1CCC(F)(F)CC1)Nc1cc2c(Nc3ccc(F)c(Cl)c3)ncnc2s1 | Active | 7 | Dose-dependent effect | Dose-dependent effect | 5160 | Dose-dependent effect | Active | 1200 | 4 | Dose-dependent effect | Active | – | – | – | – | – | – | – | – | – | – |
| O=C(/C=C/CN1CCCCC1)Nc1cc2c(Nc3ccc(F)c(Cl)c3)ncnc2s1 | Active | 9 | Dose-dependent effect | Dose-dependent effect | 6440 | Dose-dependent effect | Active | 130 | 2 | Dose-dependent effect | Active | – | – | – | – | – | – | – | – | – | – |
| O=C(/C=C/CN1CC2CCC1C(=O)C2)Nc1cc2c(Nc3ccc(F)c(Cl)c3)ncnc2s1 (configuration not stated) | Active | 0.9 | Dose-dependent effect | Dose-dependent effect | 12000 | Dose-dependent effect | Active | 1540 | 4 | Dose-dependent effect | Active | > 10000 | 37 | > 10000 | > 10000 | > 10000 | 30 | > 10000 | > 10000 | > 10000 | IC50 [21]: > 10000 nM; IC50 [22]: > 10000 nM; IC50 [23]: > 10000 nM; IC50 [24]: > 10000 nM |
| O=C(/C=C/CN1CCOCC1)Nc1cc2c(Nc3ccc(F)c(Cl)c3)ncnc2s1 | Active | 3 | Dose-dependent effect | Dose-dependent effect | 11700 | Dose-dependent effect | Active | 2170 | 3 | Dose-dependent effect | Active | – | – | – | – | – | – | – | – | – | – |
| C=CC(=O)Nc1cc2c(Nc3ccc(F)c(Cl)c3)ncnc2s1 | Active | 16 | Dose-dependent effect | Dose-dependent effect | 3000 | Dose-dependent effect | Active | 730 | 24 | Dose-dependent effect | Active | > 10000 | 4 | > 10000 | > 10000 | > 10000 | 40 | > 10000 | > 10000 | > 10000 | inhibition [25]: Active; IC50 [21]: > 10000 nM; IC50 [22]: > 10000 nM; IC50 [23]: 1630 nM; IC50 [24]: > 10000 nM |

From ChEMBL document CHEMBL3233010, “Design, synthesis and biological evaluation of novel 6-alkenylamides substituted of 4-anilinothieno[2,3-d]pyrimidines as irreversible epidermal growth factor receptor inhibitors” (Bioorg Med Chem, 2014)
